The subject of test [1] is elastin mRNA. Nature of the test: Positive controls: stimulation of elastin mRNA synthesis by quantitative RT-PCR. Format: cell-based. Conditions: fibroblasts of normal human skin. The procedure: (§1) The active principles were tested at 1% (v/v) on fibroblasts of normal human skin (originating from the foreskin of the infant or originating from the adult). The culture was carried out, e.g. in a monolayer on 24-well culture plates, in a defined medium without serum (Fibroblast Basal Medium). The cells were sown, e.g. at 40,000 per cm^2. At the confluence, the cells are placed in contact with the actives advantageously for 24 hours. In parallel, a non-treated control (medium alone) and three positive controls (TGF-β at 1 ng/ml, IL-1α at 50 pg/ml and Phytokine® (Coletica, Lyons, France) at 2% (v/v)) are advantageously carried out, e.g. on the same culture plate. The TGF-β at 1 ng/ml and the IL-1α at 50 pg/ml were tested beforehand and the stimulation of the synthesis of elastin mRNA induced by these two cytokines at these concentrations was verified by an analysis of the mRNAs, e.g. by quantitative RT-PCR (×10 for TGF-β and ×6 for IL-1 alpha). After the time of placing the actives in contact with the cells, e.g. 24 hours, the media are removed and the cells are preserved e.g. by dry freezing at −80° C. after a rinsing in phosphate buffer pH 7.4. The total RNAs are extracted e.g. with the aid of an extraction kit of 96 wells on silica columns and were determined on a 96-well spectrophotometer at 260 nm (purity indicator: protein determination at 280 nm). […]

A further test relates to elastin (Eln) mRNA. Nature of the test: Screening of active principles by qualitative RT-PCR, elastin mRNA. The test is classed as cell-based, human. To be noted: actives at 1% (v/v), 24 hours, adult abdomen fibroblasts (donor), mRNA vs actin and non-treated control. The procedure:
as §1

A further test relates to LOXL mRNA. Nature of the test: Real time RT-PCR effectiveness study, LOXL mRNA. The test is classed as cell-based, human. To be noted: 24 hours, adult fibroblasts (donor). The procedure:
(§2) […] The culture was carried out e.g. in monolayer in 24-well plates, in a defined medium without serum. (Fibroblast Basal Medium). The cells are sown e.g. at 40,000 per cm^2. After the time of placing the actives in contact with the cells (24 hours), the media were removed and the cells were preserved e.g. by dry freezing at −80° C. after a rinsing with phosphate buffer at pH 7.4. At the end of experimentation, the content of mRNA of elastin, of LOXL and of actin is evaluated by an mRNA analysis technique, e.g. by real time RT-PCR. For this, the couples of primers enabling the amplification of specific fragments of these genes are those described above (Example 10).
(§3) After extraction e.g. with the aid of an extraction kit in 96-wells on silica columns and determination on a 96-well spectrophotometer at 260 nm, the RNAs are diluted e.g. to 5 ng/μl. The RT-PCR reactions (Reverse Polymerase Transcription Chain Reactions) were carried out by quantitative real time RT-PCR with the aid of the “Opticon” system (MJ Research). Advantageously, the reaction mixture (50 μl) introduced into the wells was the following, for each sample: • 10 μl of RNA at a concentration of 5 ng/μl, • The specific primers of the various labels sought after, • Reaction mixture (Qiagen 25 μl 2xQuantiTect SYBR Green RT-PCR master mix containing 5 mM MgCl2+0.5 μl QuantiTect RT mix), the label SYBR Green I inserting in the DNA double strands during the elongation step. […] Analysis and Method of Calculation: The incorporation of fluorescence in the amplified DNA was evaluated continuously during the PCR cycles. This system enabled obtaining curves of fluorescence measurement as a function of the number of PCR cycles and thus enabled evaluating a relative amount of amplified DNA. […] According to the experimentation, the threshold of measurement of the C (T) (=Cycle Threshold) was fixed for T between 0.05 and 0.01, and then an arbitrary measurement unit is calculated for each gene according to the formula: Sgene ? x ? =10^7×(½)^C(T)gene ? ^x ? […]

The subject of test [2] is elastin mRNA. Nature of the test: Real time RT-PCR effectiveness study, elastin mRNA. The test is classed as cell-based, human. Conditions: 24 hours, adult fibroblasts (donor). The procedure: as §2, §3
Another test concerns LOX mRNA. In words: Real time RT-PCR effectiveness study, LOX mRNA. The test is classed as cell-based, human. To be noted: active at 5%, 24 hours, adult fibroblasts (donor).

We go through four molecules from patent publication US8906425B2, “Stimulation of the synthesis of the activity of an isoform of lysyl oxidase-like LOXL for stimulating the formation of elastic fibers” (BASF Beauty Care Solutions France S.A.S., priority 2003, dated 2014).

Marks after values point to notes of the source that are not given here.

In the case of TGF-β [reference compound], the “stimulation of the synthesis of elastin mRNA (×)” value with elastin mRNA [1] (TGF-β at 1 ng/ml) was 10.

ethyl hexenoate: the “Eln Control multiplied by:” value with elastin (Eln) mRNA is 1.5.

`CCCC(=O)OC` [methyl butyrate]: the “LOXL Control multiplied by:” value with LOXL mRNA (active at 0.01%) is given as 0.89; in the test with LOXL mRNA (active at 1%), 2.10*; with LOXL mRNA (active at 5%) it was 0.91. Also, the “El Control multiplied by:” value is on record as 0.92 in the test on elastin mRNA [2] (active at 0.01%), 0.96 with elastin mRNA [2] (active at 0.1%) and 1.70* in the test with elastin mRNA [2] (active at 5%). In addition, the “LOX Control multiplied by:” value with LOX mRNA is recorded as 0.91.

B1: IL-1 alpha: cytokine used as positive control at 50 pg/ml (protein, UniProt P01583 113-271, looked up)
Interleukin-1 alpha: SAPFSFLSNVKYNFMRIIKYEFILNDALNQSIIRANDQYLTAAALHNLDEAVKFDMGAYKSSKDDAKITVILRISKTQLYVTAQDEDQPVLLKEMPEIPKTITGSETNLLFFWETHGTKNYFTSVAHPNLFIATKQDYWVCLAGGPPSITDFQILENQA
Take B1: the “stimulation of the synthesis of elastin mRNA (×)” value with elastin mRNA [1] (IL-1α at 50 pg/ml) is 6.
